Counter-ions that a name gives are not always drawn.
Assays:
[1] = biological target: T1, human norepinephrine transporter (Homo sapiens, UniProt P23975); assay: [3H]-nisoxetine scintillation proximity binding assay (norepinephrine binding assay); conditions: read-out: Ki (NET)
T1 construct: isolate and amplify each of the three full-length cDNAs from an appropriate cDNA library; expressed in transfected cells; host or cells: HEK-293 cells, stably transfected (pcDNA3.1-type vector); membrane preparation
From the text: (§1) Generation of Stable Cell-lines Expressing the Human Dopamine, Norepinephrine and Serotonin Transporters
(§2) Standard molecular cloning techniques were used to generate stable cell-lines expressing the human dopamine, norepinephrine and serotonin transporters. The polymerase chain reaction (PCR) was used in order to isolate and amplify each of the three full-length cDNAs from an appropriate cDNA library. Primers for PCR were designed using the following published sequence data:
Human norepinephrine transporter: GenBank M65105. Reference: Pacholczyk T, Blakely, R D and Amara S G. Expression cloning of a cocaine- and antidepressant-sensitive human noradrenaline transporter. Nature (1991) volume 350, pages 350-354. […]
Cell pastes from large scale production of HEK-293 cells expressing cloned human norepinephrine transporters were homogenized in 4 volumes 50 mM Tris-HCl containing 300 mM NaCl and 5 mM KCl, pH 7.4. […] The protein concentration of the membrane preparation was determined using a bicinchoninic acid (BCA) protein assay reagent kit (available from Pierce). […]
The microtitre plates were incubated at room temperature for 10 hours prior to reading in a Trilux scintillation counter. The results were analysed using an automatic spline fitting programme (Multicalc, Packard, Milton Keynes, UK) to provide Ki values for each of the test compounds. […]

[2] = biological target: T2, human serotonin transporter (Homo sapiens, UniProt P31645); assay: [3H]-citalopram scintillation proximity binding assay (serotonin binding assay); conditions: read-out: Ki (SERT)
T2 construct: isolate and amplify each of the three full-length cDNAs from an appropriate cDNA library; expressed in transfected cells; host or cells: HEK293 cells, stably transfected (pcDNA3.1-type vector); membrane preparation
From the text: as §1, §2
Human serotonin transporter: GenBank L05568. Reference: Ramamoorthy S, Bauman A L, Moore K R, Han H, Yang-Feng T, Chang A S, Ganaphthy V and Blakely R D. Antidepressant- and cocaine-sensitive human serotonin transporter: Molecular cloning, expression, and chromosomal localization. Proceedings of the National Academy of Sciences of the USA (1993) volume 90, pages 2542-2546. […]
Membrane preparation is essentially similar to that for the norepinephrine transporter containing membranes as described above. […] The protein concentration of the membrane preparation was determined using a BCA protein assay reagent kit. […]
The microtitre plates were incubated at room temperature for 10 hours prior to reading in a Trilux scintillation counter. The results were analysed using an automatic spline fitting programme Multicalc, Packard, Milton Keynes, UK) to provide Ki (nM) values for each of the test compounds. […]

T1 sequence (P23975 whole entry): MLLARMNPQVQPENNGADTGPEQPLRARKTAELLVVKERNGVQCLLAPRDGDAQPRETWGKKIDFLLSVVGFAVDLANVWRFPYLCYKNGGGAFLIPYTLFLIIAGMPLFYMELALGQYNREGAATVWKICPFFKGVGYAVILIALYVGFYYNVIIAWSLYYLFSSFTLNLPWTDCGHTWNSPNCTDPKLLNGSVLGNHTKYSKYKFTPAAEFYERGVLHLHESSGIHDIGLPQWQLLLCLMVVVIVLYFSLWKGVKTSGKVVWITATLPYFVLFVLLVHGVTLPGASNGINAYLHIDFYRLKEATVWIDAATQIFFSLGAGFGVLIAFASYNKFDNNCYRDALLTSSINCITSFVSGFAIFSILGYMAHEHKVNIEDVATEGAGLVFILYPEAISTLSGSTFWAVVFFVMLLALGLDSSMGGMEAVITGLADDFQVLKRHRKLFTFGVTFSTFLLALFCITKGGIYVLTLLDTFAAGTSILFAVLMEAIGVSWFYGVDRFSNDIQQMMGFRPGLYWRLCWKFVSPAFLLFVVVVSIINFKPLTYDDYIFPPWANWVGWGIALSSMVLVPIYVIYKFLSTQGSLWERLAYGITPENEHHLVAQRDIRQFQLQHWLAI
T2 sequence (P31645 whole entry): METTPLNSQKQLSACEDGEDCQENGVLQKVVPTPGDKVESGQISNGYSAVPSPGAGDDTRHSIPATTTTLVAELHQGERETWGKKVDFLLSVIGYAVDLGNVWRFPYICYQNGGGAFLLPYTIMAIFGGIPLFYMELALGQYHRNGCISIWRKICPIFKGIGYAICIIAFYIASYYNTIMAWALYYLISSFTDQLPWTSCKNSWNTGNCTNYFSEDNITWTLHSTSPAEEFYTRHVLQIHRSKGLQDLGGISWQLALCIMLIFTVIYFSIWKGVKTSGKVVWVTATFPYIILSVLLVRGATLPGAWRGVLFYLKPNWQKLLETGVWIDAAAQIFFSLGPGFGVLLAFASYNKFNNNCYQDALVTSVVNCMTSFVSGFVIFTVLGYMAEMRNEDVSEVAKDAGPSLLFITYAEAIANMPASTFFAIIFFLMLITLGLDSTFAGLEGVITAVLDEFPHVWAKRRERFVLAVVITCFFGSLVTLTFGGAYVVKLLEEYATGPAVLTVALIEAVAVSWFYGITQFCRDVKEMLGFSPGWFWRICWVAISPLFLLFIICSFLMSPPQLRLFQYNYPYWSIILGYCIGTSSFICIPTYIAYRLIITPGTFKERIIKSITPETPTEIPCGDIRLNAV

Ki [1]: 15.2 nM | Ki [2]: 1.1 nM
SMILES: CNC[C@@H](O)[C@@H](Oc1ccc(F)c2ccccc12)c1cccc(F)c1 [Example 32, (1S,2R)-1-(4-Fluoro-naphthalen-1-yloxy)-1-(3-fluoro-phenyl)-3-methylamino-propan-2-ol Hydrochloride]

— patent publication US7410996B2, “3-aryloxy/thio-2,3-substituted propanamines and their use in inhibiting serotonin and norepinephrine reuptake” (Eli Lilly and Company, priority 2002, dated 2008)
